{
  "source": "patent US7455861B2",
  "about": "“Angelicae sinensis extracts useful for treatment of cancers” (priority 2004, dated 2008)",
  "key": {"DBTRG-05MG [1]": {"tested_on": "DBTRG-05MG", "test": "Cytotoxicity (IC50) on DBTRG-05MG", "type": "cell-based", "conditions": "Homo sapiens", "description": "Human tumor cell lines (MCF-7, CL1-5, HT-29, Caco-2), human umbilical vascular endothelial cells (HUVEC), and human dermal fibroblasts (HDF) were tested for sensitivity on Angelicae sinensis extracts, ligustilide, n-butylidenephthalide and its derivatives in vitro. The DBTRG-05MG, BCM, HL-60 and J5 cells were grown in RPMI-1640 medium containing 10% fetal calf serum and 100 ng/ml penicillin and […] streptomycin at 37° C. in a humidified atmosphere with 5% CO2. The G5T/VGH, RG2, Ni 8, SVEC and Balb/3T3 cells were cultured in DMEM with 10% fetal calf serum and 100 ng/ml penicillin and […] streptomycin at 37° C. in 5% CO2. Mycoplasma infection of the culture cells was excluded by PCR screening methods before each experiment.\nThe effects on cell viability after the treatments with different concentrations of the Angelicae sinensis extracts or the active components purified therefrom were evaluated by modified MTT assay in triplicate. Briefly, the cells (5×10^3) were incubated into 96-well plates containing 100 μl of a growth medium. The cells were permitted to adhere for 24 hours, then treated with 100 μl of the herbal extracts or the active components dissolved in the medium. The control contained DMSO of <0.02% (v/v). After 24, 48 and 72 h incubation, the drug-containing medium was replaced by 50 μl of fresh medium, and cells in each well were incubated in 50 μl of 400 μg/ml MTT for 6-8 h. The medium and MTT were removed later and 100 μl of DMSO was added to each well and to the control, to dissolve the soluble components. Absorbance at 550 nm of the solutions was measured with MRX Microtiter Plate Luminometer (DYNEX, USA). The absorbance of untreated cells was considered as 100%. To evaluate the effects of the extracts or the active components on cell growth rate of GBM cells, 5×10^3 exponentially growing cells were treated with different concentrations for 24, 48, or 72 h. The cytotoxicity of each test substance was determined as an IC50 value, which represents the drug concentration required to cause 50% inhibition. […]"}, "DBTRG-05MG [2]": {"tested_on": "DBTRG-05MG", "test": "Cell cycle analysis (PI staining, FACScan) in GBM cells", "type": "cell-based, human", "conditions": "400 μM BP", "description": "Brain tumor cell lines DBTRG-05MG and G5T/VGH were cultured in the growth medium with a diluent. For each test and control, DMSO was added, and the content is less than 0.02% (v/v). For the AS-C and BP treatment, 70 μg/ml of AS-C and 400 μM of BP were added, respectively. All were cultured for 48 hours. The analysis of cell cycle distribution was performed by DNA staining with propidium iodide (PI). Briefly, 2×10^6 adherent cells were detached by trypsinization. The detached cells and the floating dead cells were centrifuged and washed twice with 10 ml of cold 1×PBS (Life Technologies, Inc.). Supernatant was aspirated, cells were re-suspended in 0.8 ml of 1×PBS, and then 200 μl of PI solution (50 μg/ml PI+0.05 mg/ml RNase A; Sigma Chemical Co.) was added, and the cells were refrigerated at 4° C. overnight. The cells were incubated while protected from light at room temperature for at least 2 h before DNA analysis. After staining, DNA was detected and quantified on 20,000 total cells using a FACScan (Becton Dickinson Immunocytometry Systems, San Jose, Calif., USA) and CellQuest analysis software. The G0/G1 phases were gated in M1 (×2); G2/M phases were gated in M2 (×2); the total cells were gated in M3; S phase was M3−(M1(×2)+M2(×2)); Sub G1 phase (apoptosis cells) was gated in M4."}, "AT12": {"tested_on": "AT12", "test": "Cytotoxicity (IC50) on AT12", "type": "cell-based", "conditions": "Homo sapiens, read-out: Cytotoxicity (IC50) AT12", "description": "The effects on cell viability after the treatments with different concentrations of the Angelicae sinensis extracts or the active components purified therefrom were evaluated by modified MTT assay in triplicate. Briefly, the cells (5×10^3) were incubated into 96-well plates containing 100 μl of a growth medium. The cells were permitted to adhere for 24 hours, then treated with 100 μl of the herbal extracts or the active components dissolved in the medium. The control contained DMSO of <0.02% (v/v). After 24, 48 and 72 h incubation, the drug-containing medium was replaced by 50 μl of fresh medium, and cells in each well were incubated in 50 μl of 400 μg/ml MTT for 6-8 h. The medium and MTT were removed later and 100 μl of DMSO was added to each well and to the control, to dissolve the soluble components. Absorbance at 550 nm of the solutions was measured with MRX Microtiter Plate Luminometer (DYNEX, USA). The absorbance of untreated cells was considered as 100%. To evaluate the effects of the extracts or the active components on cell growth rate of GBM cells, 5×10^3 exponentially growing cells were treated with different concentrations for 24, 48, or 72 h. The cytotoxicity of each test substance was determined as an IC50 value, which represents the drug concentration required to cause 50% inhibition. All experiments in this study were performed in triplicate."}, "ETS-1": {"tested_on": "ETS-1", "test": "RT-PCR of ETS-1 in HUVEC", "type": "cell-based, human"}},
  "note": "Where “and” joins values, the source holds several entries; their conditions need not be identical. Identical values can stand only once. Like-named read-outs stand apart in the source and are kept apart here.",
  "data": [
    {"smiles": "CCCC=C1OC(=O)c2ccccc21", "note": "[BP, n-Butylidenephthalide]", "values": [
      {"measurement": "IC50", "setting": "DBTRG-05MG [1]; Table 2, read-out: Cytotoxicity (IC50) DBTRG-05MG", "result": "7 to 10", "unit": "µg/mL"},
      {"measurement": "IC50", "setting": "DBTRG-05MG [1]; Table 2, value in parentheses, read-out: Cytotoxicity (IC50) DBTRG-05MG", "result": "37.2 to 53.2", "unit": "µM"},
      {"measurement": "cell cycle accumulation at G0/G1 phase", "setting": "DBTRG-05MG [2]", "result": "> 90", "unit": "%"},
      {"measurement": "IC50", "setting": "AT12", "result": "10 µg/mL to 15 µg/mL and 53.2 µM to 79.8 µM"},
      {"measurement": "Inhibition RT-PCR ETS-1", "setting": "ETS-1", "result": 53.13, "unit": "µg/mL"},
      {"measurement": "Inhibition RT-PCR ETS-1", "setting": "ETS-1; value in parentheses", "result": "(282.6 μM)"}
    ]}
  ]
}
